# Reference: US6355799B1, “Substituted benzene compounds, process for their preparation, and herbicidal and defoliant compositions containing them” (ISK Americas Incorporated, priority 1997, dated 2002)
# Key:
# Assay type in all cases: in vivo
# [1] = system: upland rice (Oryza sp., var. Tebonnet, RICE); assay: Pre-emerge test, crop safety; details: rating scale 0-100, 14 days after application
# Procedure, shortened: (§1)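 Rating: 0–100 visual injury, 14 DAA. Application: acetone, 187 l/ha, 15–1000 g ai/ha, flat-fan track sprayer with nozzle 40–45 cm above soil or canopy. Post-emerge runs used 0.25% v/v surfactant on 2–3 leaf plants.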
# [2] = system: field corn (Zea mays L., var. Dekalb 535, CORN); assay: Pre-emerge test, crop safety; details: rating scale 0-100, 14 days after application
# Procedure, shortened: as §1
# [3] = system: ivyleaf morningglory (Ipomoea hederacea, IPOHE); assay: Pre-emerge test, greenhouse herbicide activity screening; details: rating scale 0-100, 14 days after application
# Procedure, shortened: (§2)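 Visual ratings on a 0-100 scale (0 no damage, 100 all plants dead) were taken at 14 days after treatment. Rates of 15-1000 g ai/ha in acetone, 187 l/ha, were sprayed onto soil one day after planting (pre-emerge) or onto 2-3 leaf plants with 0.25% v/v surfactant (post-emerge).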
# [4] = system: barnyardgrass (Echinochloa crus-galli, ECHCG); assay: as above; details: rating scale 0-100, 14 days after application
# Procedure, shortened: as §2
# [5] = system: lambsquarters (Chenopodium album, CHEAL); assay: as above; details: rating scale 0-100, 14 days after application
# Procedure, shortened: as §2
# [6] = system: green foxtail (Setaria viridis, SETVI); assay: as above; details: rating scale 0-100, 14 days after application
# Procedure, shortened: as §2
# [7] = system: velvetleaf (Abutilon theophrasti, ABUTH); assay: as above; details: rating scale 0-100, 14 days after application
# Procedure, shortened: as §2
# [8] = system: sicklepod (Cassia obtusifolia, CASOB); assay: as above; details: rating scale 0-100, 14 days after application
# Procedure, shortened: as §2
# [9] = system: large crabgrass (Digitaria sanguinalis, DIGSA); assay: as above; details: rating scale 0-100, 14 days after application
# Procedure, shortened: as §2
# [10] = system: johnsongrass (Sorghum halepense, SORHA); assay: as above; details: rating scale 0-100, 14 days after application
# Procedure, shortened: as §2
# [11] = system: ivyleaf morningglory (Ipomoea hederacea, IPOHE); assay: Post-emerge test, greenhouse herbicide activity screening; details: rating scale 0-100 (0 no damage, 100 complete death), 14 days after application
# Procedure, shortened: (§3)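 Compounds in acetone were track-sprayed at 15-1000 g ai/ha (187 l/ha) on sandy loam pots: pre-emerge one day after seeding, post-emerge at 2-3 leaf stage with 0.25% v/v non-ionic surfactant. Phytotoxicity was rated 14 days later on a 0 (no damage) to 100 (complete death) scale.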
# [12] = system: barnyardgrass (Echinochloa crus-galli, ECHCG); assay: as above; details: rating scale 0-100 (0 no damage, 100 complete death), 14 days after application
# Procedure, shortened: as §3
# [13] = system: redroot pigweed (Amaranthus retroflexus, AMARE); assay: as above; details: rating scale 0-100 (0 no damage, 100 complete death), 14 days after application
# Procedure, shortened: as §3
# [14] = system: common ragweed (Ambrosia artemisizfolia L., AMBEL); assay: as above; details: rating scale 0-100 (0 no damage, 100 complete death), 14 days after application
# Procedure, shortened: as §3
# [15] = system: lambsquarters (Chenopodium album, CHEAL); assay: as above; details: rating scale 0-100 (0 no damage, 100 complete death), 14 days after application
# Procedure, shortened: as §3
# [16] = system: green foxtail (Setaria viridis, SETVI); assay: as above; details: rating scale 0-100 (0 no damage, 100 complete death), 14 days after application
# Procedure, shortened: as §3
# [17] = system: velvetleaf (Abutilon theophrasti, ABUTH); assay: as above; details: rating scale 0-100 (0 no damage, 100 complete death), 14 days after application
# Procedure, shortened: as §3
# [18] = system: sicklepod (Cassia obtusifolia, CASOB); assay: as above; details: rating scale 0-100 (0 no damage, 100 complete death), 14 days after application
# Procedure, shortened: as §3
# [19] = system: large crabgrass (Digitaria sanguinalis, DIGSA); assay: as above; details: rating scale 0-100 (0 no damage, 100 complete death), 14 days after application
# Procedure, shortened: as §3
# [20] = system: johnsongrass (Sorghum halepense, SORHA); assay: as above; details: rating scale 0-100 (0 no damage, 100 complete death), 14 days after application
# Procedure, shortened: as §3
# [21] = system: redroot pigweed (Amaranthus retroflexus, AMARE); assay: Pre-emerge test, greenhouse herbicide activity screening; details: rating scale 0-100, 14 days after application
# Procedure, shortened: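 Herbicidal damage is scored 0 (none) to 100 (complete plant death) two weeks after a simulated field spray. Rates span 15–1000 g ai/ha, delivered in acetone at 187 l/ha. For post-emergence treatments, plants have 2–3 leaves and the spray carries 0.25% v/v non-ionic surfactant.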
# [22] = system: upland rice (Oryza sp., var. Tebonnet, RICE); assay: Post-emerge test, crop safety; details: rating scale 0-100 (0 no damage, 100 complete death), 14 days after application
# Procedure, shortened: as §2
# [23] = system: field corn (Zea mays L., var. Dekalb 535, CORN); assay: Post-emerge test, crop safety; details: rating scale 0-100 (0 no damage, 100 complete death), 14 days after application
# Procedure, shortened: as §2
smiles,measurement,setting,value
COc1c(Cl)cc(F)c(-n2c(=O)cc(C(F)(F)F)n(C)c2=O)c1CC(Cl)C(=O)OCC(F)(F)C(F)F (stereo not shown) [14-22],"Pre-emerge phytotoxicity rating, crop damage RICE",[1]; 63 g ai/ha,0
same,"Pre-emerge phytotoxicity rating, crop damage RICE",[1]; 250 g ai/ha,10
same,"Pre-emerge phytotoxicity rating, crop damage CORN",[2]; 63 g ai/ha,0
same,"Pre-emerge phytotoxicity rating, crop damage CORN",[2]; 250 g ai/ha,0
same,"Pre-emerge herbicidal activity, phytotoxicity rating IPOHE",[3]; 63 g ai/ha,0
same,"Pre-emerge herbicidal activity, phytotoxicity rating IPOHE",[3]; 250 g ai/ha,0
same,"Pre-emerge herbicidal activity, phytotoxicity rating ECHCG",[4]; 63 g ai/ha,0
same,"Pre-emerge herbicidal activity, phytotoxicity rating ECHCG",[4]; 250 g ai/ha,0
same,"Pre-emerge herbicidal activity, phytotoxicity rating CHEAL",[5]; 63 g ai/ha,20
same,"Pre-emerge herbicidal activity, phytotoxicity rating CHEAL",[5]; 250 g ai/ha,90
same,"Pre-emerge herbicidal activity, phytotoxicity rating SETVI",[6]; 63 g ai/ha,0
same,"Pre-emerge herbicidal activity, phytotoxicity rating SETVI",[6]; 250 g ai/ha,0
same,"Pre-emerge herbicidal activity, phytotoxicity rating ABUTH",[7]; 63 g ai/ha,0
same,"Pre-emerge herbicidal activity, phytotoxicity rating ABUTH",[7]; 250 g ai/ha,70
same,"Pre-emerge herbicidal activity, phytotoxicity rating CASOB",[8]; 63 g ai/ha,0
same,"Pre-emerge herbicidal activity, phytotoxicity rating CASOB",[8]; 250 g ai/ha,0
same,"Pre-emerge herbicidal activity, phytotoxicity rating DIGSA",[9]; 63 g ai/ha,0
same,"Pre-emerge herbicidal activity, phytotoxicity rating DIGSA",[9]; 250 g ai/ha,50
same,"Pre-emerge herbicidal activity, phytotoxicity rating SORHA",[10]; 63 g ai/ha,0
same,"Pre-emerge herbicidal activity, phytotoxicity rating SORHA",[10]; 250 g ai/ha,0
same,"Post-emerge Herbicidal Activity, phytotoxicity rating IPOHE",[11]; Rate 63 g ai/ha,10
same,"Post-emerge Herbicidal Activity, phytotoxicity rating IPOHE",[11]; Rate 250 g ai/ha,80
same,"Post-emerge Herbicidal Activity, phytotoxicity rating ECHCG",[12]; Rate 63 g ai/ha,100
same,"Post-emerge Herbicidal Activity, phytotoxicity rating ECHCG",[12]; Rate 250 g ai/ha,100
same,"Post-emerge Herbicidal Activity, phytotoxicity rating AMARE",[13]; Rate 63 g ai/ha,50
same,"Post-emerge Herbicidal Activity, phytotoxicity rating AMARE",[13]; Rate 250 g ai/ha,100
same,"Post-emerge Herbicidal Activity, phytotoxicity rating AMBEL",[14]; Rate 63 g ai/ha,100
same,"Post-emerge Herbicidal Activity, phytotoxicity rating AMBEL",[14]; Rate 250 g ai/ha,100
same,"Post-emerge Herbicidal Activity, phytotoxicity rating CHEAL",[15]; Rate 63 g ai/ha,50
same,"Post-emerge Herbicidal Activity, phytotoxicity rating CHEAL",[15]; Rate 250 g ai/ha,90
same,"Post-emerge Herbicidal Activity, phytotoxicity rating SETVI",[16]; Rate 63 g ai/ha,30
same,"Post-emerge Herbicidal Activity, phytotoxicity rating SETVI",[16]; Rate 250 g ai/ha,60
same,"Post-emerge Herbicidal Activity, phytotoxicity rating ABUTH",[17]; Rate 63 g ai/ha,30
same,"Post-emerge Herbicidal Activity, phytotoxicity rating ABUTH",[17]; Rate 250 g ai/ha,100
same,"Post-emerge Herbicidal Activity, phytotoxicity rating CASOB",[18]; Rate 63 g ai/ha,0
same,"Post-emerge Herbicidal Activity, phytotoxicity rating CASOB",[18]; Rate 250 g ai/ha,50
same,"Post-emerge Herbicidal Activity, phytotoxicity rating DIGSA",[19]; Rate 63 g ai/ha,80
same,"Post-emerge Herbicidal Activity, phytotoxicity rating DIGSA",[19]; Rate 250 g ai/ha,95
same,"Post-emerge Herbicidal Activity, phytotoxicity rating SORHA",[20]; Rate 63 g ai/ha,40
same,"Post-emerge Herbicidal Activity, phytotoxicity rating SORHA",[20]; Rate 250 g ai/ha,60
same,"Pre-emerge herbicidal activity, phytotoxicity rating AMARE",[21]; 63 g ai/ha,100
same,"Pre-emerge herbicidal activity, phytotoxicity rating AMARE",[21]; 250 g ai/ha,100
same,Post-emerge phytotoxicity rating RICE (crop damage),[22]; Rate 63 g ai/ha,0
same,Post-emerge phytotoxicity rating RICE (crop damage),[22]; Rate 250 g ai/ha,10
same,Post-emerge phytotoxicity rating CORN (crop damage),[23]; Rate 63 g ai/ha,10
same,Post-emerge phytotoxicity rating CORN (crop damage),[23]; Rate 250 g ai/ha,50
